Data reported in ChEMBL document CHEMBL1145659, “The alkaloids of Corydalis meifolia” (J Nat Prod, 1983).
Values after ≈ are worked out from the molar mass of the structure shown.

How the values were obtained:
Ileum [1] = test: (§1) Spasmolytic activity in isolated guinea pig ileum assessed as spasmogen-induced inhibition of smooth muscle contraction at 10 ug; assay type: functional, Cavia porcellus; set-up: scale not given: the % may be the effect or the level left
Ileum [2] = test: as §1; assay type: functional, Cavia porcellus; set-up: scale not given: the % may be the effect or the level left; remark: listed apart in the source
Ileum [3] = test: Spasmolytic activity in isolated guinea pig ileum assessed as spasmogen-induced inhibition of smooth muscle contraction; assay type: functional, tissue-based; conditions: Cavia porcellus

Row | SMILES | Activity (Ileum [1]) [%] | Activity (Ileum [2]) [%] | Activity (Ileum [3]) | IC50 (Ileum [3]) [µg/mL]
1 | COc1cc2c(cc1OC)[C@H]1[C@@H](C)c3ccc4c(c3CN1CC2)OCO4 [CAVIDINE] | 100 | 84 | Dose-dependent effect | –
2 | COc1cc2c(cc1OC)[C@@H]([C@H]1OC(=O)c3c1ccc1c3OCO1)N(C)CC2 [CORLUMINE] | 50 | 0 | Dose-dependent effect | –
3 | COc1cc2c(cc1OC)-c1c(C)c3ccc4c(c3c[n+]1CC2)OCO4.[Cl-] [DEHYDROCAVIDINE] | 40 | 20 | Dose-dependent effect | –
4 | COc1cc2c(cc1OC)C1(C(=O)c3ccc4c(c3[C@H]1O)OCO4)N(C)CC2 (stereo partly drawn) [YENHUSOMIDINE] | 52 | 17 | Dose-dependent effect | 0.5 (≈ 1.3 µM)
